Tested on: Microtox Acute Toxicity Reagent (Vibrio fischerio)
Test: Microtox Response Test (Microtox Response Index of anionic surfactant)
Type: cell-based
Conditions: pure anionic surfactant; EC50 for 50% decrease of bioluminescence, 5 minutes
Description: The biological activity/mildness of a pure surfactant can measured directly via a Microtox Response Test hereinafter described in the Analytical Methods section and can be reported as a Microtox Response Index. By “pure surfactant” it is meant a chemical composition consisting essentially of a single surfactant entity, wherein the entity has essentially one chain length, head group and salt counter ion. From a standpoint of high biological activity, preferred anionic surfactants of the antimicrobial cleansing compositions of the present invention have a Microtox Response Index of less that about 150, more preferably less than about 100 and most preferably less than about 50. […]
For surfactant compositions which are mixtures of surfactants rather than pure surfactants (this includes “commercial grade” surfactants which typically comprise mixtures of entities with different chain lengths and potentially have higher levels of impurities), the Microtox Response Index for any individual surfactant component is not a reliable measurement of biological activity or mildness. In the case of mixtures, the Microtox Index of each individual component can be determined and the weighted average used as the Index for the mixture if all the individual components of the mixture are known. […]

Row | Molecule | Microtox Index [ppm]
1 | CCCCCCCCCCCCOS(=O)(=O)O.N [ammonium lauryl sulfate] | 1.0
2 | ammonium laureth-3 sulfate | 120

Source: US6413529B1, “Antimicrobial wipes which provide improved residual benefit versus gram negative bacteria” (The Procter & Gamble Company, priority 1999, dated 2002)
